# Experiments:
# Type in all cases: in vivo
# [1] = tested on: female db/db mice; test: Example 1: 11 day oral dosing of rosiglitazone +/− T-1095 in db/db mice; conditions: for Glucose / Insulin / TG: mean; for Body Weight Change / Liver Weight: −T1095, mean
# Procedure: (§1) Mice (n=8 animals/group) received the test compounds or vehicle by oral gavage in a volume of 10 ml/kg of body weight. Body weight was recorded on day 1, prior to dosing, and days 4, 8 and 11. Eighteen hours after the final dose, mice were weighed and anesthetized with CO2/O2 (70:30). Mice were then bled by retro-orbital sinus puncture into 2 mL heparinized polypropylene tubes on ice.
# Plasma samples were then assayed for glucose, insulin, and triglycerides using Trinder reagent (Sigma Diagnostics), Elisa (Alpco) and GPO-Trinder (Sigma Diagnostics), respectively.
# (§2) Livers were excised, weighed and frozen. […] Heart weight can be measured in an analogous manner.
# [2] = tested on: female db/db mice; test: Example 2: 11 day oral dosing of T-1095 +/− rosiglitazone in db/db mice; conditions: Rosi 10 mpk, mean
# Procedure: as §1, with “ice. Plasma samples were then assayed for glucose, insulin, and triglycerides using Trinder reagent (Sigma Diagnostics), Elisa (Alpco) and GPO-Trinder (Sigma Diagnostics), respectively. Livers and hearts were excised, weighed and frozen.” for “ice.”
# as §2
# [3] = tested on: db/db mice; test: Example 4: 32 day oral dosing of T-1095 +/− MCC-555 in db/db mice; conditions: for % HbA1C +/− SEM / Body Weight Change (g) ± SEM / Glucose / Insulin / Liver Weight (g) ± SEM / TG / Heart Weight (g) ± SEM: 32 day oral dosing
# Procedure: (§3) To examine the effect of T-1095 in combination with a PPARγ agonist, male db/db mice (6 weeks of age/Jackson Labs, […]), a PPARγ agonist such as MCC-555 (3 mg/kg-30 mg/kg), T-1095 (3-100 mg/kg), or MCC-555 plus T-1095. Mice (n=8 animals/group) received the test compounds or vehicle by oral gavage in a volume of 10 ml/kg of body weight. Body weight was recorded on day 1, prior to dosing, and twice a week for the duration of the study. One hour after the final dose, mice were weighed and anesthetized with CO2/O2 (70:30). Mice were then bled by retro-orbital sinus puncture into 2 mL heparinized polypropylene tubes on ice. Mice were then fasted overnight and bled by tail-clip prior to receiving a glucose challenge (2 g/kg p.o). Blood was collected at 30, 60.120, and 180 minutes after the challenge. Animals were then sacrificed and epididymal fat pads, livers, and hearts were excised, weighed and frozen for histological examination. Plasma samples were then assayed for glucose, HbA1c, insulin, and triglycerides.
# Livers and hearts were excised, weighed and frozen.
# [4] = tested on: db/db mice; test: Example 4: plasma glucose AUC following an oral glucose challenge
# Procedure: as §3
compound,measurement,setting,value
"CN(CCOc1ccc(CC2SC(=O)NC2=O)cc1)c1ccccn1 (centres unmarked) [Rosi, 5-((4-(2-(methyl-2-pyridinylamino)ethoxy)phenyl)methyl)-2,4-thiazolidinedione]",Glucose,[1]; 0.1 mpk Rosi,***388.13 mg/dL
same,Insulin,[1]; 0.1 mpk Rosi,65.75 ng/mL
same,TG,[1]; 0.1 mpk Rosi,***188.38 mg/dL
same,Glucose,[1]; 1 mpk Rosi,***246.71 mg/dL
same,Insulin,[1]; 1 mpk Rosi,***25.43 ng/ml
same,TG,[1]; 1 mpk Rosi,***199.43 mg/dL
same,Glucose,[1]; 10 mpk Rosi,***321.63 mg/dL
same,Insulin,[1]; 10 mpk Rosi,***31.63 ng/ml
same,TG,[1]; 10 mpk Rosi,***136.25 mg/dL
same,Body Weight Change,[1]; Rosi 0.1 mpk,4.34 g
same,Liver Weight,[1]; Rosi 0.1 mpk,2.31 g
same,Body Weight Change,[1]; Rosi 1 mpk,2.60 g
same,Liver Weight,[1]; Rosi 1 mpk,2.32 g
same,Body Weight Change,[1]; Rosi 10 mpk,4.76 g
same,Liver Weight,[1]; Rosi 10 mpk,2.36 g
same,Body Weight Change,[2],3.9 g
same,Glucose,[2],**244 mg/dL
same,Insulin,[2],*7.4 ng/ml
same,Liver Weight,[2],2.15 g
same,TG,[2],*192 mg/dL
"O=C1NC(=O)C(Cc2ccc3cc(OCc4ccccc4F)ccc3c2)S1 (centres unmarked) [MCC-555, 5-((6-((2-fluorophenyl)methoxy)-2-naphthalenyl)methyl)-2,4-thiazolidinedione, reference compound]",% HbA1C +/− SEM,[3]; 3 mpk MCC-555,4.50 ± 0.17 %
same,Body Weight Change (g) ± SEM,[3]; 3 mpk MCC-555,9.14 ± 1.5 g
same,Glucose,[3]; 3 mpk MCC-555,201.3 ± 24 mg/dL
same,Insulin,[3]; 3 mpk MCC-555,31.7 ± 4.7 ng/dL
same,Liver Weight (g) ± SEM,[3]; 3 mpk MCC-555,2.36 ± 0.22 g
same,TG,[3]; 3 mpk MCC-555,90.20 ± 4.5 mg/dL
same,% HbA1C +/− SEM,[3]; 10 mpk MCC-555,4.10 ± 0.15 %
same,Body Weight Change (g) ± SEM,[3]; 10 mpk MCC-555,9.53 ± 0.9 g
same,Glucose,[3]; 10 mpk MCC-555,155.1 ± 22 mg/dL
same,Heart Weight (g) ± SEM,[3]; 10 mpk MCC-555,0.13 ± 0.01 g
same,Insulin,[3]; 10 mpk MCC-555,11.9 ± 1.4 ng/dL
same,Liver Weight (g) ± SEM,[3]; 10 mpk MCC-555,1.91 ± 0.17 g
same,TG,[3]; 10 mpk MCC-555,73.90 ± 5.4 mg/dL
same,% HbA1C +/− SEM,[3]; 30 mpk MCC-555,4.11 ± 0.14 %
same,Body Weight Change (g) ± SEM,[3]; 30 mpk MCC-555,8.0 ± 0.7 g
same,Glucose,[3]; 30 mpk MCC-555,111.5 ± 8.0 mg/dL
same,Heart Weight (g) ± SEM,[3]; 30 mpk MCC-555,0.12 ± 0.01 g
same,Insulin,[3]; 30 mpk MCC-555,5.40 ± 0.4 ng/dL
same,Liver Weight (g) ± SEM,[3]; 30 mpk MCC-555,1.68 ± 0.1 g
same,TG,[3]; 30 mpk MCC-555,55.30 ± 4.7 mg/dL
same,change in heart weight,"[3]; MCC-555 alone, in this study",did not produce a significant change in heart weight
same,AUC glucose % of Vehicle ± SEM,"[4]; 3 mpk MCC-555, 32 day oral dosing",74.11 ± 7.38 % of Vehicle
same,AUC glucose % of Vehicle ± SEM,"[4]; 10 mpk MCC-555, 32 day oral dosing",71.05 ± 8.37 % of Vehicle
same,AUC glucose % of Vehicle ± SEM,"[4]; 30 mpk MCC-555, 32 day oral dosing",48.03 ± 4.37 % of Vehicle
